Test [1] has as its target T1, Serine/threonine-protein kinase TAO1 (Homo sapiens, UniProt Q7L7X3).
T1 sequence (Q7L7X3 whole entry): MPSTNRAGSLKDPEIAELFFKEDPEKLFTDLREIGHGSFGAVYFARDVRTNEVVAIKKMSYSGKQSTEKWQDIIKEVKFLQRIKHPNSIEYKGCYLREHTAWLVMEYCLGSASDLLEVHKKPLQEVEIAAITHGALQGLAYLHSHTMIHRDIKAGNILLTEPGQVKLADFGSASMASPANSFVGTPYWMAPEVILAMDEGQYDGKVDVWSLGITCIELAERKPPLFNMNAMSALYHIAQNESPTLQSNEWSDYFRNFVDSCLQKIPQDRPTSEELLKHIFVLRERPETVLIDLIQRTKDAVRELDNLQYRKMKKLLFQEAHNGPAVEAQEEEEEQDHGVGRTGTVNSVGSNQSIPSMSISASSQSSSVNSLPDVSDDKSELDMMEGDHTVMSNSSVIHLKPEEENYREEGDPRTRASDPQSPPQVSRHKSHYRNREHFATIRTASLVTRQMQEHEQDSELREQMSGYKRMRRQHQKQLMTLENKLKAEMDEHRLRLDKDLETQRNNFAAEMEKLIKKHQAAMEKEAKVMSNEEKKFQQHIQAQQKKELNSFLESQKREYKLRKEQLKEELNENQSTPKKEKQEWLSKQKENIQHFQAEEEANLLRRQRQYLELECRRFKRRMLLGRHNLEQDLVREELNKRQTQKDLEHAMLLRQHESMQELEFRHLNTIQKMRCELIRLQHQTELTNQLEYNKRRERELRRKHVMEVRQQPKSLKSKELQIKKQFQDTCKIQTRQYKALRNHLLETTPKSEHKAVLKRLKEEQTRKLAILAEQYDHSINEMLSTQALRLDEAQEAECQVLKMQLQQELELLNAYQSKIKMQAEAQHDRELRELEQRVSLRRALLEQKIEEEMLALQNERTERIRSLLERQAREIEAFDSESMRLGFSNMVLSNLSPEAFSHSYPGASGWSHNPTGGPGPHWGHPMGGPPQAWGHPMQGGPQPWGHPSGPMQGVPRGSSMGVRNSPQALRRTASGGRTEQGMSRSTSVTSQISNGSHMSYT

In test [2] the target is Mitogen-activated protein kinase kinase kinase kinase 1 (Homo sapiens, UniProt Q92918).
The target of test [3] is T2, Dual specificity mitogen-activated protein kinase kinase 3 (Homo sapiens, UniProt P46734).
T2 sequence (P46734 whole entry): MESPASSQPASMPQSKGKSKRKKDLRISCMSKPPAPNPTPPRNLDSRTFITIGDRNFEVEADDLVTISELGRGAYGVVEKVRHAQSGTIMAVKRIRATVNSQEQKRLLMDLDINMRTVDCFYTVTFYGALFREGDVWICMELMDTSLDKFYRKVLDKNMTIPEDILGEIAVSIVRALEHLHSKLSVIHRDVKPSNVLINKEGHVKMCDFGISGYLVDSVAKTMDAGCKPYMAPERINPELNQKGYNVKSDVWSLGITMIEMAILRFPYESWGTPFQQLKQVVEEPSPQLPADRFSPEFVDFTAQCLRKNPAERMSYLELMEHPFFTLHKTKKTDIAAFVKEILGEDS

Test [4] addresses T3, Mitogen-activated protein kinase kinase kinase 2 (Homo sapiens, UniProt Q9Y2U5).
T3 sequence (Q9Y2U5 whole entry): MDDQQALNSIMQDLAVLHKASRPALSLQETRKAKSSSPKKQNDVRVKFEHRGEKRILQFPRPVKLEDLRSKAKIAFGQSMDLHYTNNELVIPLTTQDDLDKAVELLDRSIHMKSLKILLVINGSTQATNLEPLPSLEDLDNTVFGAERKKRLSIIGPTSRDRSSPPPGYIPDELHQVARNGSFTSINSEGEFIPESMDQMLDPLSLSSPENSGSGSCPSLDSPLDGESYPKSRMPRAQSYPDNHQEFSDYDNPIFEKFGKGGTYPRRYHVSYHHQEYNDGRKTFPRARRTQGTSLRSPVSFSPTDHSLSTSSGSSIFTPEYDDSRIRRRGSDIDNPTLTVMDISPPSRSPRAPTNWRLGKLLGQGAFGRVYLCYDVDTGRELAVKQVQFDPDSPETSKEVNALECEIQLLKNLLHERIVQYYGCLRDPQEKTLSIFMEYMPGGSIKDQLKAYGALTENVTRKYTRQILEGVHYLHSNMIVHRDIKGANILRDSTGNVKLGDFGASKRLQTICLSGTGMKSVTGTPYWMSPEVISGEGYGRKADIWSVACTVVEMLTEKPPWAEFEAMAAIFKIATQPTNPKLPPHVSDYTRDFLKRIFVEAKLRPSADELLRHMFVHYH

In test [5] the target is Serine/threonine-protein kinase B-raf (Homo sapiens, UniProt P15056).
Test [6] addresses Activated CDC42 kinase 1 (Homo sapiens, UniProt Q07912).
Test [7] has as its target Mitogen-activated protein kinase kinase kinase 1 (Homo sapiens, UniProt Q13233).

Active and inactive are the calls of the source. For most assays here, no stated cut-off is given here; in the data, actives have a measured Kd and inactives only a lower limit. Where only a bound is given, the exact number is not on record here.

Sequence of Mitogen-activated protein kinase kinase kinase kinase 1 (Q92918 whole entry): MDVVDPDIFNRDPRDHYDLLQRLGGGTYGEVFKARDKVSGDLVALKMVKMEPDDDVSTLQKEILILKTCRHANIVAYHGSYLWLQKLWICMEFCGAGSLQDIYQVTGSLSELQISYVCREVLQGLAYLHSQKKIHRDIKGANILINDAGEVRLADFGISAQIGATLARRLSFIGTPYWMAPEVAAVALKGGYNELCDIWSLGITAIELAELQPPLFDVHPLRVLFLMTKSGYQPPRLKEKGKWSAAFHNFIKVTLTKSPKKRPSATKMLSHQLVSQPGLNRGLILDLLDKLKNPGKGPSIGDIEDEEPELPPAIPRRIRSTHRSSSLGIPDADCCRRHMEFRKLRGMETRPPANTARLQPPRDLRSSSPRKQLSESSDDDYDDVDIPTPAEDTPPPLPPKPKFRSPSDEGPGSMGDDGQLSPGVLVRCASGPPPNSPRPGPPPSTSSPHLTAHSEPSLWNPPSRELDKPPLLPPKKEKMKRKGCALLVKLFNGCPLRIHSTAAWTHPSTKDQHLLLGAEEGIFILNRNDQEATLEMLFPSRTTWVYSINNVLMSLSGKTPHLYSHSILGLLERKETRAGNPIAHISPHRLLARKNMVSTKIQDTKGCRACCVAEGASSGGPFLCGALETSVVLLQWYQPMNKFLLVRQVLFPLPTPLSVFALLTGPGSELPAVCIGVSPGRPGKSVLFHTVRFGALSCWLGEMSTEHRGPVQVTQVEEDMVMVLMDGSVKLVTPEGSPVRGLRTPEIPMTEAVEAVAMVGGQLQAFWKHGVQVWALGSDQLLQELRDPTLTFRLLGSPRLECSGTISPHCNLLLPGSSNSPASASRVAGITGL
Sequence of Activated CDC42 kinase 1 (Q07912 whole entry): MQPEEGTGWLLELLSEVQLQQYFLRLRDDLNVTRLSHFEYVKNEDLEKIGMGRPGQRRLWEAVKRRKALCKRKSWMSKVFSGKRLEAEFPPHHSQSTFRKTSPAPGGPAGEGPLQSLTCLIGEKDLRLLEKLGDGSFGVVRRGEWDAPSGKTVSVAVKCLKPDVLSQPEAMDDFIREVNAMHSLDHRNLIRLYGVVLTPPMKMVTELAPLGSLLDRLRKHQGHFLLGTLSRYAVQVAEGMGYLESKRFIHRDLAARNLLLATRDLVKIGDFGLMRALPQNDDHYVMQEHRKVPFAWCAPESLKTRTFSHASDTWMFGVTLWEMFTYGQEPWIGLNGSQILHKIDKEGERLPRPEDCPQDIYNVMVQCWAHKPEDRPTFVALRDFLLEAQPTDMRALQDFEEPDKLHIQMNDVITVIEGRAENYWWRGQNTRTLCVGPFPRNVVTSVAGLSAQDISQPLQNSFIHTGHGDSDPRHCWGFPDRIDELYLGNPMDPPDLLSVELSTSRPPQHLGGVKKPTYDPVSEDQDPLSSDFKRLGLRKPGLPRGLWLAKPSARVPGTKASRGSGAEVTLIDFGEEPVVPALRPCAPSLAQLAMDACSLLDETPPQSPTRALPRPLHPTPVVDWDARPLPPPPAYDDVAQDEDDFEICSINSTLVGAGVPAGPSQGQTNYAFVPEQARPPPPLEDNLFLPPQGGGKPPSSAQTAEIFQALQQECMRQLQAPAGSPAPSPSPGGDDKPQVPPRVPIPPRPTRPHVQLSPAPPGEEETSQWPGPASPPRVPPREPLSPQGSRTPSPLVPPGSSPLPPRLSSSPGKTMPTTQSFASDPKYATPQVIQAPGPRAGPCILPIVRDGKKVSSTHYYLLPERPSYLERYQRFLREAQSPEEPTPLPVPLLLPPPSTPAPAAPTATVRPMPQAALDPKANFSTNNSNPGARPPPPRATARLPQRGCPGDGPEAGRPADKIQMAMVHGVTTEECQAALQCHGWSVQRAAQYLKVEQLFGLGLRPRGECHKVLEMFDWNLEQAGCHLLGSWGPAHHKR
Sequence of Mitogen-activated protein kinase kinase kinase 1 (Q13233 whole entry): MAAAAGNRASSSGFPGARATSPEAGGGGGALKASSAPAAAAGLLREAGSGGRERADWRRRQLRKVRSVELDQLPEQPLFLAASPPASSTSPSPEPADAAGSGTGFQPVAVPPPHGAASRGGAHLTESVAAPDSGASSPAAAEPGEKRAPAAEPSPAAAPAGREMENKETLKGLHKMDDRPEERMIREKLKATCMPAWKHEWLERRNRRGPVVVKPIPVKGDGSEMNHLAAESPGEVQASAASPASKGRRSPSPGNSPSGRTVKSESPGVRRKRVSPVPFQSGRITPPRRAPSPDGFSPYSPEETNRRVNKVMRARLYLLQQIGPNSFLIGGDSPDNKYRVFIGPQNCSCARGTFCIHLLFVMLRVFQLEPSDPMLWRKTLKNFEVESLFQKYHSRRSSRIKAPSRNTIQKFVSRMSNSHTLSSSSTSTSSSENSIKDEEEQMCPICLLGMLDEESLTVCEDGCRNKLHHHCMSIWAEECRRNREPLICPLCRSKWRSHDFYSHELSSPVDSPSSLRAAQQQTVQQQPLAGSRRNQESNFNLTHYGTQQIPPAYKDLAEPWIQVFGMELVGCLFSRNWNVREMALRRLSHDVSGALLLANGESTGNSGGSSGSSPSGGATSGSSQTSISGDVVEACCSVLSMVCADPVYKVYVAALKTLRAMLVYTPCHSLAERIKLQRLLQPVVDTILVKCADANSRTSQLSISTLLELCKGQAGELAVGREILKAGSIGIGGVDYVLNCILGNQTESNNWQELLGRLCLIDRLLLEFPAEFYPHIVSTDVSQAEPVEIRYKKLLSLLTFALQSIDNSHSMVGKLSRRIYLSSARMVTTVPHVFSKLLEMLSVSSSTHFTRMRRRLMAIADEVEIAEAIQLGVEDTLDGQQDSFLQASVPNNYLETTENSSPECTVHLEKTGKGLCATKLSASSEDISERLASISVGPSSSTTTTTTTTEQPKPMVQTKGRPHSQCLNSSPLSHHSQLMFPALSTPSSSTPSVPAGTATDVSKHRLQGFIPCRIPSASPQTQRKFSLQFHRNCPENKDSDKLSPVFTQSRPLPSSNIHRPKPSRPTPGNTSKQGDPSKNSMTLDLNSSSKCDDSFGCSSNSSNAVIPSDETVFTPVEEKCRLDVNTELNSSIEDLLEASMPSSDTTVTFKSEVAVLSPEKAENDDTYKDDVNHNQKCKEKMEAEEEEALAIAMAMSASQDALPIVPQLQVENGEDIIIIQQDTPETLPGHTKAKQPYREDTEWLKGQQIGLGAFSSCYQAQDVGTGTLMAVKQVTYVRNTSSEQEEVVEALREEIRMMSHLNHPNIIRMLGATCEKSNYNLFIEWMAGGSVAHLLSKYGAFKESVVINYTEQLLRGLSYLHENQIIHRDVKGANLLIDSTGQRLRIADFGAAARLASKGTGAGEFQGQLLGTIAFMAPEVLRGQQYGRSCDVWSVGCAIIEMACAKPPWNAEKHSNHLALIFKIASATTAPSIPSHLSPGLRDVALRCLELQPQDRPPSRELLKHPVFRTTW
Sequence of Serine/threonine-protein kinase B-raf (P15056 whole entry): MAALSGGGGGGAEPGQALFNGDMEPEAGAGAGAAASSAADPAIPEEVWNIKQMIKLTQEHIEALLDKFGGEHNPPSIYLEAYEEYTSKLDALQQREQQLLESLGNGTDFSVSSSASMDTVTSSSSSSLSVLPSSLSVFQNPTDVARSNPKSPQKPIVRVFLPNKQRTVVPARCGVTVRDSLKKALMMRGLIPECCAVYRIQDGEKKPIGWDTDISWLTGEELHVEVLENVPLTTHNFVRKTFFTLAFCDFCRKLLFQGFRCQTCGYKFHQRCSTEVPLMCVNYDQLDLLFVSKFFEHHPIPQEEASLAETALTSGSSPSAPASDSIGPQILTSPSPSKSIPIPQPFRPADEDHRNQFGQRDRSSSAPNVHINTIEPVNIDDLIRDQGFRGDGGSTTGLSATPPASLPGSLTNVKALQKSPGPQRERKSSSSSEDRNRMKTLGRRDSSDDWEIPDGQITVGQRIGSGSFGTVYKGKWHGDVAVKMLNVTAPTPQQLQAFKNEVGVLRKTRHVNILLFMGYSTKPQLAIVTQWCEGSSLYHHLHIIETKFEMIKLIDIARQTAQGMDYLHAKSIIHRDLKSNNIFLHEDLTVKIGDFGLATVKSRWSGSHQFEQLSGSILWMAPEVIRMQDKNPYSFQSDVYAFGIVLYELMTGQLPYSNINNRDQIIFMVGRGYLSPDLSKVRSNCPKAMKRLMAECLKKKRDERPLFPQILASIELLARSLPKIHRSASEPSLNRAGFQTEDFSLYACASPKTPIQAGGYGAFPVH

`C[C@@H](Nc1cc(F)cc(F)c1)c1cc(C(=O)N(C)C)cc2c(=O)cc(N3CCOCC3)oc12` [AZD-8186]: the Kd in test [1], in test [2], in test [3], in test [4], in test [5] and in test [6] was > 30 µM (inactive) throughout. Also, in test [7], the Kd is > 30 µM (inactive).

Turning to `COc1cc(OC)c(/C=C/S(=O)(=O)Cc2ccc(OC)c(NCC(=O)O)c2)c(OC)c1` [RIGOSERTIB], the Kd in test [1], in test [2], in test [3], in test [4], in test [5] and in test [6] was > 30 µM (inactive) each time. The Kd in test [7] was > 30 µM (inactive).

In the case of `CC[C@H](Nc1ncnc2[nH]cnc12)c1nc2cccc(F)c2c(=O)n1-c1ccccc1` [IDELALISIB], the Kd in test [1], in test [2], in test [3], in test [4], in test [5] and in test [6] was > 30 µM (inactive) in each case. In addition, the Kd in test [7] is > 30 µM (inactive).

Take `C[C@@H](c1ccc2nccn2c1)n1nnc2ncc(-c3cnn(C)c3)nc21` [SAVOLITINIB]: the Kd in test [1], in test [3], in test [4], in test [5], in test [6] and in test [7] was > 30 µM (inactive) throughout.

As to `CN1N=C(N)c2cn([C@@H]3O[C@H](COP(=O)(O)O)[C@@H](O)[C@H]3O)c3ncnc1c23` [TRICIRIBINE PHOSPHATE], the Kd in test [1], in test [2], in test [3], in test [4], in test [5] and in test [6] was > 30 µM (inactive) throughout. In addition, in test [7], the Kd is > 30 µM (inactive).

Regarding `CNC(=O)CN1CCC(Oc2cc3c(Nc4cccc(Cl)c4F)ncnc3cc2OC)CC1` [SAPITINIB], the Kd in test [1], in test [2], in test [3], in test [4], in test [5] and in test [6] was > 30 µM (inactive) each time. Further, the Kd in test [7] was > 30 µM (inactive).

In the case of `Cc1nc(N)sc1-c1ccnc(Nc2ccc(N3CCOCC3)cc2)n1` [CYC-116], the Kd in test [2] was > 30 µM (inactive); in test [3], > 30 µM (inactive); in test [4], > 30 µM (inactive); in test [5], > 30 µM (inactive); in test [7], 8.16 µM (active).

On to `Cc1cc(Nc2cc(N3CCN(C)CC3)nc(/C=C/c3ccccc3)n2)n[nH]1` [ENMD-2076], for which the Kd in test [2], in test [3], in test [5] and in test [7] was > 30 µM (inactive) throughout.

Regarding `O=C(Nc1cccc(Cl)c1)Nc1ncc(CCNc2ncnc3ccsc23)s1` [SNS-314], the Kd in test [2] and in test [4] was > 30 µM (inactive) throughout.

`CNS(=O)(=O)Nc1nccc(Cc2c(C)c3ccc(Oc4ncccn4)cc3oc2=O)c1F` [AVUTOMETINIB]: the Kd in test [1] was > 30 µM (inactive); in test [3] it was > 30 µM (inactive); in test [4], > 30 µM (inactive); in test [5], 0.007 µM; in test [6], > 30 µM (inactive); in test [7] it was > 30 µM (inactive).

As to `COc1cc2nccc(Oc3ccc(NC(=O)Nc4cc(C)on4)c(Cl)c3)c2cc1OC` [TIVOZANIB], the Kd in test [1], in test [2], in test [3], in test [4], in test [6] and in test [7] was > 30 µM (inactive) throughout.

Consider `CCc1cnn2c(NCc3ccc[n+]([O-])c3)cc(N3CCCC[C@H]3CCO)nc12` [DINACICLIB], for which the Kd in test [2], in test [3], in test [4], in test [5] and in test [7] was > 30 µM (inactive) each time.

As to `OCCn1cc(-c2cnc3nnn(Cc4ccc5ncccc5c4)c3n2)cn1` [PF-04217903], the Kd in test [2], in test [3], in test [4], in test [5] and in test [7] was > 30 µM (inactive) each time.

Take `CCCS(=O)(=O)Nc1ccc(F)c(C(=O)c2c[nH]c3ncc(-c4ccc(Cl)cc4)cc23)c1F` [VEMURAFENIB]: the Kd in test [1], in test [2], in test [3], in test [4], in test [6] and in test [7] was > 30 µM (inactive) throughout.

Turning to `COC(=O)[C@@]1(O)C[C@H]2O[C@]1(C)n1c3ccccc3c3c4c(c5c6ccccc6n2c5c31)C(=O)NC4` [K-252A], the Kd is 18.8 µM (active) in test [1]; 0.452 µM (active) in test [2]; > 30 µM (inactive) in test [3]; 4.12 µM (active) in test [4]; > 30 µM (inactive) in test [5]; > 30 µM (inactive) in test [7].

Consider `COc1cc2nccc(Oc3ccc(NC(=O)NC4CC4)c(Cl)c3)c2cc1C(N)=O` [LENVATINIB], for which the Kd in test [1], in test [2], in test [3], in test [6] and in test [7] was > 30 µM (inactive) in each case.

As to `CCn1c(=O)c(-c2cc[nH]n2)cc2c(C)nc(N)nc21` [VOXTALISIB], the Kd in test [2], in test [3], in test [4], in test [5], in test [6] and in test [7] was > 30 µM (inactive) in each case.

Turning to `CNC(=O)c1cc(Oc2ccc(NC(=O)Nc3ccc(Cl)c(C(F)(F)F)c3)c(F)c2)ccn1` [REGORAFENIB], the Kd in test [1] was > 30 µM (inactive); in test [2], > 30 µM (inactive); in test [3], > 30 µM (inactive); in test [4] it was > 30 µM (inactive); in test [6] it was > 30 µM (inactive); in test [7], 0.465 µM (active).

For the compound `COC(=O)N[C@@H](C)CNc1nccc(-c2cn(C(C)C)nc2-c2cc(Cl)cc(NS(C)(=O)=O)c2F)n1` [ENCORAFENIB], the Kd in test [1], in test [2], in test [3], in test [4], in test [6] and in test [7] was > 30 µM (inactive) throughout.

The values are drawn from ChEMBL document CHEMBL3991601, “The target landscape of clinical kinase drugs” (Science, 2017).
